Source: ChEMBL document CHEMBL1131734, “Synthesis of polyamine derivatives for the preparation of affinity chromatography columns for the search of new Trypanosoma cruzi targets” (Bioorg Med Chem Lett, 1999)

How the values were obtained:
Trypanothione reductase = Trypanothione reductase (Trypanosoma cruzi, UniProt P28593); assay: Inhibitory activity against trypanothione reductase in Trypanosoma cruzi trypomastigotes; NA is not active
Trypanosoma cruzi [1] = assay: Inhibitory activity against Trypanosoma cruzi trypomastigotes; assay type: functional, organism-based
Trypanosoma cruzi [2] = assay: Inhibitory activity against Trypanosoma cruzi trypomastigotes at concentration 12.5 uM; assay type: functional

Trypanothione reductase, sequence (P28593 whole entry): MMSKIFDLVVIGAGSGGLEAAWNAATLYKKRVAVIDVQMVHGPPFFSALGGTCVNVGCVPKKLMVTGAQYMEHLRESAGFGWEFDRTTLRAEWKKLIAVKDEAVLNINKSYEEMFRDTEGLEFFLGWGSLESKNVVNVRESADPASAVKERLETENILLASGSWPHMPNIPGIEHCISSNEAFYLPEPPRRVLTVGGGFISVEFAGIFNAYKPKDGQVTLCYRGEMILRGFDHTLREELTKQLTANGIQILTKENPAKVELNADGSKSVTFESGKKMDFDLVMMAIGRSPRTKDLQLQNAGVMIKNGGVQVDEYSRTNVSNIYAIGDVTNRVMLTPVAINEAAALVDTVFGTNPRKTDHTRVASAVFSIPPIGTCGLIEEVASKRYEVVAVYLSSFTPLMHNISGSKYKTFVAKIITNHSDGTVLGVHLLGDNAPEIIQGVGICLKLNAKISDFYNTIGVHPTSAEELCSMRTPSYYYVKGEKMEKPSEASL

SMILES: O=C1c2ccccc2C(=O)N1CCCN1CCN(CCCNCC2CCCCC2)CC1
- IC50 (Trypanothione reductase): Not Active
- IC50 (Trypanosoma cruzi [1]): 5 µM

SMILES: NCCCN1CCN(CCCN2C(=O)c3ccccc3C2=O)CC1
- IC50 (Trypanothione reductase): Not Active
- IC50 (Trypanosoma cruzi [1]): 5 µM

SMILES: NCCCCC(N)C(=O)NCC1CCC(CNCCCN2CCN(CCCNCC3CCC(CNC(=O)C(N)CCCCN)CC3)CC2)CC1 (centres undefined)
- IC50 (Trypanothione reductase): Not Active
- IC50 (Trypanosoma cruzi [1]): 5 µM

SMILES: C1CCC(CNCCCN2CCN(CCCNCC3CCCCC3)CC2)CC1
- IC50 (Trypanothione reductase): Not Active
- inhibition at 12.5 µM (Trypanosoma cruzi [2]): 90%
- IC50 (Trypanosoma cruzi [1]): 5 µM

SMILES: CC(C)(C)OC(=O)NCCCCC(NC(=O)OC(C)(C)C)C(=O)NCC1CCC(CNCCCN2CCN(CCCNCC3CCCCC3)CC2)CC1 (centres undefined)
- IC50 (Trypanothione reductase): Not Active
- IC50 (Trypanosoma cruzi [1]): 5 µM

SMILES: NCCCCC(N)C(=O)NCC1CCC(CNCCCN2CCN(CCCNCC3CCCCC3)CC2)CC1 (centres undefined)
- IC50 (Trypanothione reductase): Not Active
- IC50 (Trypanosoma cruzi [1]): 5 µM

SMILES: NCCCN1CCN(CCCN)CC1
- IC50 (Trypanothione reductase): Not Active
- IC50 (Trypanosoma cruzi [1]): 5 µM

SMILES: NCCCN1CCN(CCCNCC2CCCCC2)CC1
- IC50 (Trypanothione reductase): Not Active
- IC50 (Trypanosoma cruzi [1]): 5 µM

SMILES: CC(C)(C)OC(=O)NCCCCC(NC(=O)OC(C)(C)C)C(=O)NCC1CCC(CNCCCN2CCN(CCCNCC3CCC(CNC(=O)C(CCCCNC(=O)OC(C)(C)C)NC(=O)OC(C)(C)C)CC3)CC2)CC1 (centres undefined)
- IC50 (Trypanothione reductase): Not Active
- IC50 (Trypanosoma cruzi [1]): 5 µM
